Data reported in patent US6777408B1, “Pyrido-thieno-diazepines method for the production thereof and pharmaceutical compositions containing said pyrido-thieno-diazepines” (Societe de Conseils de Recherches et d'Applications …, priority 1999, dated 2004).

Row | SMILES | melting point [°C]
1 | O=C1CNC(c2ccccc2Cl)c2c(sc3c2CCNC3)N1CCc1ccccc1 (stereo not drawn) [Example 13, 5-(2-chlorophenyl)-1,3,4,5,6,7,8,9-octahydro-1-(2-phenylethyl)-2H-pyrido[4′,3′:4,5]thieno[2,3-e]-1,4-diazepine-2-one] | 128 to 130
2 | COc1ccc(NC(=S)N2CCc3c(sc4c3C(c3ccccc3Cl)=NC(OC(=O)CCCCCCN)C(=O)N4CCc3ccccc3)C2)c([N+](=O)[O-])c1 (stereo not drawn) [Example 8, 3-(7-amino-1-oxo-heptyloxy)-5-(2-chlorophenyl)-1,2,3,6,7,9-hexahydro-N-(4-methoxy-2-nitrophenyl)-2-oxo-1-(2-phenylethyl)-8H-pyrido[4′,3′:4,5]thieno[2,3-e]-1,4-diazepine-8-carbothioamide] | 90 to 95
3 | COc1ccc(NC(=S)N2CCc3c(sc4c3C(c3ccccc3Cl)=NCC(=S)N4CCc3ccccc3)C2)c([N+](=O)[O-])c1 | 152
